{"source": "patent US20260055431A1", "about": "“METHODS OF DELIVERING COMPONENTS TO MICROORGANOSPHERES” (Xilis, Inc., priority 2022, published 2026)", "key": {"[1]": {"system": "MOSs derived from multiple myeloma (MM) bone marrow biopsies", "assay": "Multiple myeloma MOS apoptosis assay, Caspase 3/7 green dye, Incucyte imaging", "format": "cell-based, human", "conditions": "imaged every 2 hours for 4 days", "method": "FIGS. 36A and 36B show the efficacy of Lenalidomide and Bortezoid on MOSs derived from multiple myeloma (MM) bone marrow biopsies. MM MOSs (on day 11) were treated with Lenalidomine (5 uM) or Bortezoid (2 nM). Caspase 3/7 green dye was added in the assay to monitor apoptosis. Incucyte images were taken every 2 hours for 4 days. […] If this test were run on, for example, traditional bulk organoids, the results would not be reliable (due to the lack of patient immune cells) leading to uncertainty in the best course of action for patient treatment."}, "[2]": {"system": "PDX240 bulk organoids and MOSs", "assay": "Drug response of bulk organoids vs MOSs, cell viability, PDX240", "format": "cell-based, human", "conditions": "cell viabilities measured after 3 days of treatment", "description": "The MOSs may be formed from cell lines grown as part of a Patient Derived Xenograft (PDX). For example, FIGS. 28A-28D illustrate MOSs formed from cultured PDX240 cells. PDX240 cells are a Patient Derived Xenograft (PDX) tumor cell line (numbered 240 based on patient source) that were human tumors grown in immunodeficient mice (PDX) to form in vivo tumors. The xenograft tissue was extracted dissociated, and used to form MOSs as described above. In this example a single cell was included in each MOS as it was formed. […] With progressive time in culture, at least some of the MOSs show the cells dividing and forming structures.\n(§1) Organoids were formed from Patient Derived Xenograft cells (including the PDX240 cells described above and a second PDX cell line, PDX19187) and were compared with MOSs formed using the same cells. The organoids were formed using conventional techniques in which a large mass of MATRIGEL in a well or dish was seeded with cells and cultured until growth was confirmed. MOSs were generated from the traditional organoids.\n(§2) Both traditional (“bulk”) organoids and the MOSs were then treated with the same drugs (e.g., Oxaliplatin or SN38) and cell viabilities were measured after 3 days of treatment."}, "[3]": {"system": "PDX19187 bulk organoids and MOSs", "format": "cell-based, human", "conditions": "cell viabilities measured after 3 days of treatment", "method": "as §1, §2"}, "[4]": {"system": "human liver MOSs", "assay": "Toxicity assay using human liver MOSs", "format": "cell-based", "conditions": "10 mM", "description": "Similarly, FIGS. 34A-34B also show toxicity assays using human liver MOSs."}, "[5]": {"system": "mouse liver MOSs", "assay": "Toxicity assay using mouse liver MOSs", "format": "cell-based", "conditions": "10 mM"}, "[6]": {"system": "MOSs generated from biopsy material", "assay": "Drug effect screen on MOSs from biopsy material (Example 3)", "format": "cell-based, human", "conditions": "Example 3 patient biopsy", "method": "(§3) In a similar set of experiments, MOSs were generated from biopsy material (FIG. 23A), and a drug effect screen was performed using the resulting MOSs. […] Thus, the MOSs correlated strongly with patient response to the standard of care drugs. In this case, the patient endured six months of side effects and toxicities that may have been avoided by the predicted response from the MOSs, indicating (within 7-10 days from the biopsy) that the tumor would not respond to these drugs."}, "[7]": {"system": "tumor", "assay": "Patient response to standard of care drugs (Example 3)", "format": "in vivo, human", "conditions": "patient treated with both Oxalipalatin and Irinotecan, after 6 months of treatment", "method": "as §3"}, "[8]": {"system": "traditional cell line", "assay": "Traditional (2D) cell line dosed with drug", "format": "cell-based", "conditions": "all dose ranges examined", "description": "As mentioned above, the MOSs and methods of using them to screen for drug compositions may be used to accurately predict the response of a patient tumor to one or more drug therapies. […] For example, in FIG. 22A-22D, the MOSs, but not a cell line, was able to correlate with patient response."}, "[9]": {"system": "tumor MOSs generated from a patient biopsy", "assay": "Drug screen on MOSs from patient biopsy (Example 2)", "format": "cell-based, human", "conditions": "Example 2 patient biopsy"}, "[10]": {"system": "tumor", "assay": "Actual tumor response of the patient to treatment (Example 2)", "format": "in vivo, human", "conditions": "Example 2 patient, before vs post treatment"}, "[11]": {"system": "MOSs derived from renal tumor biopsies", "assay": "IO assay of renal tumor MOSs, Annexin V apoptosis marker", "format": "cell-based, human", "conditions": "MOSs from renal tumor biopsy", "method": "IO assays of the MOSs for these pulmonary and renal tumor biopsies were prepared with an Annexin V marker to indicate cellular apoptosis. […] If this test were run on, for example, traditional bulk organoids, the results would not be meaningful (due to the lack of patient immune cells) leading to uncertainty in the best course of action for patient treatment, […]"}, "[12]": {"system": "MOSs derived from a pulmonary tumor biopsy", "assay": "IO assay of pulmonary tumor MOSs, Annexin V apoptosis marker", "format": "cell-based, human", "method": "IO assays of the MOSs for these pulmonary and renal tumor biopsies were prepared with an Annexin V marker to indicate cellular apoptosis. […] If this test were run on, for example, traditional bulk organoids, the results would not be meaningful (due to the lack of patient immune cells) leading to uncertainty in the best course of action for patient treatment,\n(§4) IO assays of the MOSs for this pulmonary tumor biopsy were prepared with an Annexin V marker to indicate cellular apoptosis. […] If this test were run on, for example, traditional bulk organoids, the results would be less accurate (because ESK1 would not be able to reach its target) leading to uncertainty in the best course of action for patient treatment.\nas §4, with “apoptosis and Cytolight Red dye to indicate tumor infiltrating lymphocytes (TILs).” for “apoptosis.”, “(due” for “(because ESK1 would not be able”, “the inability of PBMC to penetrate the traditional bulk organoids)” for “reach its target)”\nThis is an indication that TILs can penetrate MOS to kill tumor cells. […]"}}, "note": "“Also recorded” adds a separate entry of the source. Read-outs that look alike come from different tables or passages of the source."}
{"compound": "CC(C)C[C@H](NC(=O)[C@H](Cc1ccccc1)NC(=O)c1cnccn1)B(O)O", "note": "[Bortezoid]", "values": [{"measurement": "response in the form of tumor cell apoptosis (Caspase 3/7 green dye)", "setting": "[1]; MM MOSs on day 11, 2 nM", "value": "does not and not"}]}
{"compound": "CCc1c2c(nc3ccc(O)cc13)-c1cc3c(c(=O)n1C2)COC(=O)[C@]3(O)CC", "note": "[SN38, 7-Ethyl-10-hydroxy-camptothecin]", "values": [{"measurement": "drug response curves, bulk organoids compared with MOSs", "setting": "[2]", "value": "comparable responses"}, {"measurement": "drug response curves, bulk organoids compared with MOSs", "setting": "[3]", "value": "comparable responses"}]}
{"compound": "CC(=O)Nc1ccc(O)cc1", "note": "[acetaminophen]", "values": [{"measurement": "tissue in the treated MOSs compared with control group", "setting": "[4]", "value": "significant increase atypical tissue structures (arrows) and debris"}, {"measurement": "tissue in the MOSs compared with control group", "setting": "[5]", "value": "smaller and contains many dead cells"}]}
{"compound": "CCc1c2c(nc3ccc(OC(=O)N4CCC(N5CCCCC5)CC4)cc13)-c1cc3c(c(=O)n1C2)COC(=O)[C@]3(O)CC", "note": "[Irinotecan]", "values": [{"measurement": "percent survival of the MOSs in the presence of the drug", "setting": "[6]", "value": "lack of effect"}, {"measurement": "patient response", "setting": "[7]", "value": "no response"}]}
{"compound": "O=C1[O][Pt]2([NH][C@@H]3CCCC[C@H]3[NH]2)[O]C1=O", "note": "[Oxaliplatin]", "values": [{"measurement": "percent survival of the MOSs in the presence of the drug", "setting": "[6]", "value": "no change"}, {"measurement": "patient response", "setting": "[7]", "value": "no response"}, {"measurement": "effect of drug on cell line", "setting": "[8]", "value": "no effect"}, {"measurement": "cell survival from the tumor MOSs", "setting": "[9]", "value": "significant decreases in cell survival"}, {"measurement": "drug response curves, bulk organoids compared with MOSs", "setting": "[3]; listed as Oxalipalatin", "value": "comparable response"}, {"measurement": "tumor response to treatment", "setting": "[10]", "value": "responded to treatment"}]}
{"compound": "Nivolumab", "values": [{"measurement": "response in the form of tumor cell apoptosis (Annexin V marker)", "setting": "[11]", "value": "induces apoptosis; also recorded: good response"}, {"measurement": "response in the form of tumor cell apoptosis (Annexin V marker)", "setting": "[12]", "value": "induces apoptosis; also recorded: good response"}]}
{"compound": "Nc1cccc2c1CN(C1CCC(=O)NC1=O)C2=O", "note": "(centres unmarked) [Lenalidomide]", "values": [{"measurement": "response in the form of tumor cell apoptosis (Caspase 3/7 green dye)", "setting": "[1]; MM MOSs on day 11, 5 uM", "value": "good response"}, {"measurement": "response in the form of tumor cell apoptosis (Caspase 3/7 green dye)", "setting": "[1]; MM MOSs on day 11, 5 uM, listed as Lenalidomine", "value": "induces apoptosis"}]}
